Measured values as given in US5929037A, “Modified α-D-Glc.rho.-(1-2)-α-D-Glc.rho.-(1-3)-α-D-Glc.rho.-ana logues” (Alberta Research Council, priority 1995, dated 1999).

Experiments:
glucosidase I = biological target: T1, glucosidase I (Bos taurus, UniProt A0A3Q1M9D9); experiment: Assay for glucosidase I activity (14C-Glc3Man9GlcNAc2 substrate, ConA-Sepharose, scintillation counting); type: biochemical; details: affinity purified glucosidase I from calf pancreas microsomes; for inhibition at 1000 µM: at 1 mM concentration, read-out: inhibition of glycosidase I activity
T1 construct: Glucosidase I was solubilized from calf pancreas microsomes; from tissue
T1 sequence (A0A3Q1M9D9 1-839): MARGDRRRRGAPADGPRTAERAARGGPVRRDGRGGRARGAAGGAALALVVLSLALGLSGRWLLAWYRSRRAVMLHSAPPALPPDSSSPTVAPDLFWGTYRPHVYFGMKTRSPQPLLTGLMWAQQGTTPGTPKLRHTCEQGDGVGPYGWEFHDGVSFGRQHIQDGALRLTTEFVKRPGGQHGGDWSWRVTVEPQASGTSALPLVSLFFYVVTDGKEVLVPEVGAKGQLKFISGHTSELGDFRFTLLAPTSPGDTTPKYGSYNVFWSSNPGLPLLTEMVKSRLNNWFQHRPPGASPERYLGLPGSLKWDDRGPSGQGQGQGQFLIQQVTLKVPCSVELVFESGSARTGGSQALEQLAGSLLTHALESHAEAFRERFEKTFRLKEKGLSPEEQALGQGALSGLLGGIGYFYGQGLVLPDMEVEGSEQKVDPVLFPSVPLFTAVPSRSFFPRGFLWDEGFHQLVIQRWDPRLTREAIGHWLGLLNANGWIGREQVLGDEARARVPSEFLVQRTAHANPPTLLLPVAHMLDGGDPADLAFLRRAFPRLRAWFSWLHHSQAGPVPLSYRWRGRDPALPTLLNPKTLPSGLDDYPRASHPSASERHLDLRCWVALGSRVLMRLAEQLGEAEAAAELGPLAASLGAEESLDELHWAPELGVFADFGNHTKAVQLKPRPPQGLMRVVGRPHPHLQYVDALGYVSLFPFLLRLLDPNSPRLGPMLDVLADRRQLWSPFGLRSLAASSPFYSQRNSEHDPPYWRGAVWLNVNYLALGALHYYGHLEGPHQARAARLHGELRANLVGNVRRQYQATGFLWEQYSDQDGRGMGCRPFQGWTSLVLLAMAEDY
Description: Some of the compounds which are modified analogues of the trisaccharides corresponding to the end tail of precursor oligosaccharides Glc3 Man9 GlcNAc2 -PP-Dol, were evaluated as inhibitors of glucosidase I activity. Glucosidase I was purified by a literature procedure as follows. To prepare an affinity matrix, carboxypentyl-deoxynojirimycin was coupled with Affigel 102 according to Shailubhai et al^19. Glucosidase I was solubilized from calf pancreas microsomes, and purified from glucosidase II activity by affinity chromatography according to the same authors.
^14 C-labelled Glc3 Man9 GlcNAc2 -PP-Dol was prepared by the incubation of UDP-[^14 C]Glc with calf pancreas microsomes as described by Herscovien et al^40. Glc3 Man9 GlcNAc2 was released by mild acid hydrolysis and purified by BioGel P4 chromatography.
Affinity purified glucosidase I was assayed as described by Saunier et al.^41 by adsorption of undigested substrate and oligosaccharide product to ConA-Sepharose and scintillation counting of [^14 C]Glc in the column eluent. Oligosaccharides as potential inhibitors were evaluated using castanospermine as a baseline inhibitor.

glucosidase = details: cited from earlier work

| inhibition at 1000 µM (glucosidase I) [%] | SMILES | also measured |
| --- | --- | --- |
| 100 | COC(=O)CCCCCCCCO[C@H]1O[C@H](CO)[C@@H](O)[C@H](O[C@H]2O[C@H](CO)[C@@H](O)[C@H](O)[C@H]2O[C@H]2O[C@H](CO)[C@@H](O)[C@H](O)[C@H]2O)[C@H]1O [Compound 40, 8-methoxycarbonyloctyl 3-O-[2-O-(α-D-glucopyranosyl)-α-D-glucopyranosyl]-α-D-glucopyranoside] | – |
| 50 | COC(=O)CCCCCCCCO[C@H]1O[C@H](CO)[C@@H](O)[C@H](O[C@H]2O[C@H](CO)[C@@H](O)[C@H](O)[C@H]2O[C@H]2O[C@H](CO)[C@@H](O)C[C@H]2O)[C@H]1O [Compound 45, 8-methoxycarbonyloctyl 3-O-[2-O-(3-deoxy-α-D-glucopyranosyl)-α-D-glucopyranosyl]-α-D-glucopyranoside] | – |
| – | COC(=O)CCCCCCCCO[C@H]1O[C@H](CO)[C@@H](O)[C@H](O[C@H]2O[C@H](CO)[C@@H](O)[C@H](O)[C@H]2O[C@H]2O[C@H](C)[C@@H](O)[C@H](O)[C@H]2O)[C@H]1O [Compound 49, 8-Methoxycarbonyl 3-O-[2-O-(6deoxy-α-D-glucopyranosyl)-α-D-glucopyranosyl]-α-D-glucopyranoside] | glucosidase I inhibitory activity (result in words) (glucosidase I): completely eliminated |
| – | OC[C@H]1NC[C@H](O)[C@@H](O)[C@@H]1O [deoxynojirimycin] | concentration required to induce the inhibitory effect in vitro (glucosidase): at least 1 mmol/l |
